The values below come from PMC8234734, “Pharmacokinetics and Molecular Modeling Indicate nAChRα4-Derived Peptide HAEE Goes through the Blood–Brain Barrier” (Biomolecules, 2021).

Series [1] is described as follows: Pharmacokinetics of HAEE in rabbit blood after single i.v. bolus. It is filed as in vivo. On the procedure:
In experiments on rabbits (Table 1, experimental group 1), peptide administration and blood sampling were performed through the large ear veins. To restrict movement, the rabbit was placed in a restrainer with a head hole. Into the right ear, through the large ear vein, 4000 IU of heparin (FSUE “Moscow Endocrine Plant”, Moscow, Russia) in 0.8 mL of saline solution was injected using an insulin syringe, and after 5 min a Flexicath G22 intravenous catheter (Medica LLC, Ivanovo, Russia) was installed into the large ear vein of the left ear for subsequent blood sampling.
A 0.5 mL of the mixture of HAEE and [^3H]HAEE (2000 µCi, at a dose of 120 µg/kg) was injected with an insulin syringe into the right ear vein for 10–15 s, and after 2, 4, 6, 10, 20, 30, 60, 90 and 120 min, approximately 0.5 mL of venous blood was collected through the catheter and placed into pre-weighed plastic tubes. Immediately after collection, blood tubes were frozen in liquid nitrogen and weighed.
Frozen and weighed tissue samples in plastic tubes were freeze-dried for 48 h. The freeze-dried tissue samples were heated at 65 °C for 30 min, after which they were homogenized, and the peptide fraction was extracted with 90% aqueous acetonitrile containing 1% TFA [13]. To facilitate HPLC analysis of radioactively labeled HAEE and normalize the loss of the peptide during extraction, 10 μg of HAEE was added to the extraction solution for each sample. After centrifugation, the solution containing HAEE and blood components was dried under reduced pressure, stripped with methanol and re-centrifuged. The resulting solution containing a mixture of HAEE and [^3H]HAEE was subjected to evaporation under reduced pressure, re-extraction with 0.1% aqueous TFA solution and subsequent centrifugation. Quantitative analysis of the HAEE peptide was performed using HPLC on a Kromasil C18 column, 4 × 150 mm (Nouryon-Separation Products, Bohus, Sweden) in methanol concentration gradient (12–26% for 13 min), in 0.1% HFBA (heptafluorobutyric acid). The fraction containing the HAEE peptide was collected and its [^3H]HAEE content was determined by liquid scintillation counting. The obtained radioactivity value was normalized to the area of the HAEE peak in the chromatogram (UV absorbance at 220 nm).
To calculate the pharmacokinetic parameters, we used the values of HAEE peptide concentrations in blood and tissues averaged over three (rabbit) or six (rats and mice) animals. All quantitative values are given as means ± standard deviation. The calculation of pharmacokinetic parameters was performed by combining the model and non-model approaches using the software Borgia 1.03 (NPP Nauka Plus, Rovno, Ukraine) and SigmaPlot 11.0 (Systat Software, San Jose, CA, USA).
Taking this into account, to determine the pharmacokinetic characteristics of HAEE after systemic administration to rabbits, we analyzed the peptide content in the blood for a long period of time, from 2 to 120 min. The peptide was administered i.v. at a dose of 120 μg/kg.

Series [2] in a line: Distribution of HAEE in mouse tissues after i.p. bolus. The format is in vivo. The note with it: mice, i.p. bolus 300 μg/kg. On the procedure:
In the experiments on mice (Table 1, experimental group 6), a mixture of HAEE and [^3H]HAEE (50 µCi, at a dose of 300 µg/kg) in 200 µL of saline solution was injected intraperitoneally. The animals were decapitated at the end of the period specified by the protocol; blood and studied tissues were collected in weighed plastic tubes, frozen with liquid nitrogen and weighed. When calculating the volumetric concentrations of the total amount of the HAEE peptide (labeled, unlabeled or their mixture) in the blood, the density of the blood was taken equal to 1.056 g/mL [12].
All quantitative values are given as means ± standard deviation.
Within the study, bioavailability of HAEE for several organs and tissues was analyzed with i.p. bolus administration to mice at a dose of 300 μg/kg. The quantity of HAEE in the blood, brain, kidneys, liver, heart and omentum was determined at 2, 4, 6, 10, 15 and 20 min after peptide administration. For all tissues, similar changes in the concentrations of HAEE over time were observed (Figure 3A–C). These were characterized by a bimodal relationship with peaks at 4 and 10–15 min.
Tissue bioavailability of HAEE for the brain was about 3%, which is typical for most pharmacological substances. […] This may indicate accumulation of HAEE in the brain parenchyma due to its active transfer through the BBB and further binding and retention at the affinity sites of neuronal protein targets.

The test system of series [3] is B6C3-Tg (APPswe, PSEN1-dE9) 85Dbo/j mice. The note with it: intravenous injections of HAEE; control animals 14.2 ± 3.1; cited from earlier work. The text has this:
(§1) The tetrapeptide HAEE had been proposed as one of the candidate molecules for inhibiting cerebral amyloidogenesis in AD [7]. This peptide is a synthetic analogue of the 35-His-Ala-Glu-Glu-38 (35-HAEE-38) fragment of the extracellular N-terminal domain of subunit α4 of the α4β2 nAChR. This fragment (conservative for humans, mice and chicken) forms the interface for the interaction of α4β2 nAChR with Aβ [5]. It has been previously shown by molecular modeling methods that this interaction is stabilized by ion bridges between the complementary charged side groups of the H/E and E/H amino acid ...

Another series has as its system α4β2 nAChR. The note with it: model oocytes, exogenous HAEE; cited from earlier work.
Excerpt: as §1

The next series relates to rats. Nature of the series: Observation of toxic effects after repeated administration to rats. The note with it: administered repeatedly (daily for 28 days, 300 μg/kg).
Setting [4] is: rabbit blood, single i.v. bolus 120 μg/kg, n = 3.
The mark [5] stands for this setting: rabbit, single i.v. bolus 120 μg/kg, n = 3.
Setting [6] is: blood, brain, kidneys, liver, heart, omentum.

One may read the Tmax as the time at which the peak concentration occurs. For the substance Acetyl-His-Ala-Glu-Glu-Amide [HAEE], the “Cmax (maximum concentration in the blood)” value in series [1] (rabbit blood, single i.v. bolus 120 μg/kg HAEE + [3H]HAEE, n = 3, sampling 2-120 min, HPLC + liquid scintillation) turned out to be 255 ng/mL. Further, in series [1] (setting [4]), the “T1/2(el) (elimination half-life)” value worked out at 20 min and the time to peak (Tmax) came out at 4 min. In addition, the “AUC(0–∞)” value in series [1] (rabbit blood, single i.v. bolus 120 μg/kg, n = 3, 0-4 min by trapezoidal method) is given as 4421 (ng/mL) × min. Also, in series [1] (setting [5]), the “ClT (total body clearance)” value was found to be 100 mL/min; the “Kel (elimination rate constant, central compartment)” value was 0.035 min⁻¹; the “MRT (residence time)” value came out at 29 min; the “Vd(c) (volume of distribution in the central compartment at Cmax)” value is on record as 862 mL. Also, in series [1] (setting [5]), the “Vd(extrap)” value is given as 3194 mL and the “Vd(β) (volume of distribution in the elimination phase)” value came out at 2860 mL. In addition, in series [2] (blood, 0–20 min, n = 6 per time point, [3H]HAEE), the “AUC(0–20), blood” value is reported as 2110 (ng/g) × min. For the same substance, the “fT × 100%, brain” value in series [2] (brain) is “about 3%”. Also, the “AUC(0–20), brain” value in series [2] (brain, 0–20 min, n = 6 per time point) is 70 (ng/g) × min. In series [2] (heart, 0–20 min, n = 6 per time point), the “AUC(0–20), heart” value is listed as 845 (ng/g) × min. For the same substance, in series [2] (kidney, 0–20 min, n = 6 per time point), the “AUC(0–20), kidney” value was 3437 (ng/g) × min. Also, the “AUC(0–20), liver” value in series [2] (liver, 0–20 min, n = 6 per time point) is on record as 777 (ng/g) × min. Further, the “AUC(0–20), omentum” value in series [2] (omentum, 0–20 min, n = 6 per time point) was 395 (ng/g) × min. In series [2] (setting [6]), the “Time of first peak of HAEE concentration in tissues (bimodal relationship)” value is 4 min and the “Time of second peak of HAEE concentration in tissues (bimodal relationship)” value was in the range of 10 to 15 min. Moreover, the “Average number of amyloid plaques in a brain section” value in series [3] is listed as 5.8 ± 2.1. The “Effect on amyloid aggregates formed upon contact with α4β2 nAChR” value in the series with α4β2 nAChR is “are destroyed”. For the same substance, in the series on rats, the “Visible toxic effects and abnormalities in animal behavior” value was “did not cause visible toxic effects and abnormalities in animal behavior”.
